Measurements taken from paper PMC10447463, “Data-mining unveils structure–property–activity correlation of viral infectivity enhancing self-assembling peptides” (Nature Communications, 2023).

Key:
[1] = type: physicochemical; conditions: FigS26; STD prep
[2] = tested on: HIV-1 infection of TZM-bl cells; test: HIV-1 infectivity enhancement assay, β-galactosidase luminescence; type: cell-based; conditions: for Log10 Inf. rel. to EF-C: log10 of HIV-1 infection of TZM-bl cells relative to EF-C, Fig S15 source data, asymmetric std dev errors
[3] = Zeta-potential measurement; type: physicochemical; conditions: for Zeta category ( +1 = if > 4 mV;-1 = if < -4 mV; 0 = -4mV to 4 mV): FigS26; for Zeta-pot. / mV: zeta potential of peptide, Fig S15 source data
Outline: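 Readout: zeta potential (mV) derived by Smoluchowski from measured electrophoretic mobility. Preformed aggregates (1 mg/mL peptide, PBS pH 7.4, RT for 1 d) were diluted into dilute KCl electrolyte (1 mM) shortly before analysis.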

[4] = Turbidity, derived count rate of scattered light; type: physicochemical; conditions: for Log Count Rate: log of derived count rate
Outline: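 Samples: 1 mg/mL in PBS pH 7.4 (from DMSO), 1 d at RT, then diluted in 1 mM KCl immediately before measurement. Triplicates, two independent runs averaged.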

[5] = infectivity class (low / medium / high) of each library peptide, main list in c1-c6, same classes repeated in sub-lists of sequences containing the hydrophobicity/charge patterns P+,H0,P+,H0,P0,H0,P0, P+,H0,P0,H0,P0,H0,P0, P+,H0,P0,H0
[6] = infectivity class (low / medium / high) of the peptide in the sequence-pattern analysis, Fig. S22-A4, class limits not given

Sequence	TEM: 1= fibrils, 0= aggregates (micelle), 0.5 = aggregates and fibrils, -1 = nothing obersved, STD prep [1]	infectivity [2, 5]	Log10 Inf. rel. to EF-C [2]	Zeta category ( +1 = if > 4 mV;-1 = if < -4 mV; 0 = -4mV to 4 mV) [3]	Zeta-pot. / mV [3]	infectivity [2, 6]	Rel-to EFC ([2]; Fig S8 panels B, D, infectivity enhancement relative to EF-C)	n-fold to virus ([2]; Fig S8 panels B, D, infectivity n-fold relative to virus alone)	Log Count Rate ([4]; Fig S8 panels A, C, asymmetric log errors)	Log Count Rate ([4]; Fig S8 panels B, D)	Count Rate ([4]; Fig S8 panels B, D, turbidity, derived count rate of scattered light)
KIKIQIAMWQ [JR4]	1	medium	-0.4109	1 (+1 = if > 4 mV)	11.3 mV						
KIKIQIMQWN [VH16]	1		-0.1454	1 (+1 = if > 4 mV)	9.44 mV	high					
KIKIQIMWNQ [VH15]	1	medium	-0.2495	0 (0 = -4mV to 4 mV)	2.96 mV						
KIKIQINAWQ [JR3-II]	1	medium	-0.2703	1 (+1 = if > 4 mV)	13.1 mV						
KIKIQINMAQ [JR2]	1	medium	-0.6722	0 (0 = -4mV to 4 mV)	3.07 mV						
KIKIQINMWA [JR1]	1	medium	-0.1642	1 (+1 = if > 4 mV)	14.7 mV						
KIKIQIRGD [MG6]	1	low	-1.678	1 (+1 = if > 4 mV)	6.43 mV	low					
NMWQKAKAQA [JG10]	1	low	-1.376	-1 (-1 = if < -4 mV)	-5.56 mV						
NMWQKFKFQF [JG11]	1	medium	-0.5672	1 (+1 = if > 4 mV)	9.56 mV						
NMWQKIKIQI [JG9]	1	medium	-0.6877	1 (+1 = if > 4 mV)	8.26 mV						
NMWQKIKQII [JG8]	0	low	-1.5971	0 (0 = -4mV to 4 mV)	-0.213 mV						
RGDSGGGGGGKIKIQIC [TM114 / RC17]			-0.0628		16.7 mV	high	0.8654	36.36	4.018	4.018	10416.2
